In PMC12717099, “Peptidoglycan recruitment by a penicillin binding protein” (Nature Communications, 2025):

What was measured:
[1] = system: E. faecium D344SRF pCWR624Δpbp5_pbp5_V3; assay: Disk diffusion assay, pbp5_V3; format: cell-based, Enterococcus faecium; conditions: strain pbp5_V3 (loop 625-631); 37 °C, 24 h; n=3
Protocol: (§1) The synthetic genes were purchased from GeneWiz (South Plainfield, NJ). The ribosome binding site sequence AGGAGG (Shine-Dalgarno), and a string of five A’s followed by the sequence […], that corresponds to the first 15 bp found in pbp5 from E. faecium C68 were added upstream of the START codon. The terminator sequence […] was added downstream of the STOP codon. BamHI restriction sites were added to the flanking 5′ and 3′ ends. The synthetic genes were inserted into the vector pCWR624Δpbp5. This vector was derived from pCWR624[10], in which the pbp5 gene from D366 was excised by digestion with BamHI followed by re-ligation of the vector, allowing subsequent insertion of modified synthetic pbp5s into the BamHI site downstream of ftsWEfm and psr from E. faecium C68[10]. The synthetic genes were inserted in a BamHI site located downstream of psr. The proper orientation was confirmed by PCR amplification using the forward primer OR_pbp5_FOR_1 (5′-[…]-3′) and the reverse primer OR_pbp5_REV_1 (5′-[…]-3′). Plasmids were sequence verified for the specific binding site mutations. The resulting constructions were electroporated into the natural pbp5(-) mutant E. faecium D344SRF with a selection on brain heart infusion agar (BHI) plates containing kanamycin (1500 µg/ml).
(§2) E. faecium strains were streaked fresh from −80 °C stored glycerol stocks onto brain heart infusion (BHI) agar plates and incubated for 18 h at 37 °C. Strains harboring the plasmid derivatives were grown under antibiotic pressure on agar plates containing kanamycin at 1500 µg/ml. A single colony was inoculated into BHI or BHI-kanamycin (1500 µg/ml) for overnight cultures (18 h).
Antibiotic disks used were manufactured by BD BBL^TM. Disk diffusion assays were performed according to the Clinical and Laboratory Standards Institute (CLSI) guidance. Overnight cultures were inoculated into 3 ml of BHI or BHI-kanamycin (1500 µg/ml) broth with a dilution of 1:100 and incubated until an OD600 of ~0.5 was reached. […] The plates were incubated at 37 °C and the zones of inhibition were measured after 24 h. […]

[2] = system: E. faecium D344SRF pCWR624Δpbp5 (empty plasmid); assay: MIC by broth microdilution, pCWR624Δpbp5; format: cell-based, Enterococcus faecium; conditions: strain pCWR624Δpbp5; 37 °C, 20 h; n=3
Protocol: as §1, §2
(§3) MIC determination was performed using a standard broth microdilution technique in duplicate from independent cultures. Overnight cultures were inoculated into 3 ml of BHI or BHI-kanamycin (1500 µg/ml) broth in a dilution of 1:100 and incubated until an OD600 of ~0.5 was reached. Cultures were diluted 1:1000 and inoculated into the 96-well plates with the corresponding antibiotics to be tested. Plates were incubated at 37 °C for 20 h and read by eye. […]

[3] = system: E. faecium D344SRF pCWR624Δpbp5_pbp5_V5; assay: MIC by broth microdilution, pbp5_V5; format: cell-based, Enterococcus faecium; conditions: strain pbp5_V5 (Q396A_E397A); 37 °C, 20 h; n=3
Protocol: as §1, §2, §3

PBP5 (PBP5_37-678) = assay: NMR chemical shift perturbation titration (2D [1H,15N] TROSY, 2D [1H,13C] ILV methyl HMQC) of stem peptides / PG into PBP5; format: binding, Enterococcus faecium; conditions: NH CSP titration up to 1:80 PBP5:SP1, not saturated: KD overestimated (upper bound); 10 mM MES pH 5.8, 25 mM NaCl, 308 K; read-out: KD, mean±std of residue-specific values
Protocol: Data was processed using Topspin 4.1.4 (Bruker) and analyzed using NMRFAM-SPARKY 1.3 and Poky (build number 20240829)[20],[21]. The sequence-specific backbone assignment of PBP5 is publicly available at BMRBID 51690.
SPs (SP1 to SP7) were titrated into 0.5 mM (^2H,^15N)-labeled and 0.1 mM (^2H,^15N)/^13C ILV labeled PBP5 at molar ratios of 0:1, 5:1, 10:1, 20:1, 40:1, 60:1, and 80:1 (stem peptide/SP:PBP5; molar ratios). 2D [^1H,^15N] TROSY or 2D [^1H,^13C] HMQC spectra were recorded for each titration point. SPs were solubilized in NMR buffer. Chemical shift perturbations (Δδ) between PBP5 and SP bound PBP5 spectra were calculated using Eq. 1,1 Δδppm=ΔδH^2+ΔδX/Y^2 where, X is ^15N or ^13C and Y is the constant i.e., 10 for ^15N and 4 for ^13C.
Residues with significant CSPs were identified by calculating the standard deviation of all CSPs (σ), then excluding any CSPs larger than average+2σ, recalculating σ as a new corrected σ0, and then repetitively removing CSPs above 2σ0 until no additional CSPs can be removed. CSPs above ≥2σ2 was the statistical threshold for ^1H/^15N backbone CSP analysis and ≥2xσ1 for ^1H/^13C methyl ILV data for the interaction of SP1 with PBP5. The same threshold values were used for all other peptides to allow for direct comparison with the SP1/PBP5 interaction. The identical significance analysis was also performed for PenG/ceftaroline saturated PBP5 (1:8 molar ratio of PBP5 to β-lactam antibiotics was used to ensure saturation of an extended time period needed for the SP titrations) SP interaction studies; CSPs above ≥2σ3 was the statistical threshold for ^1H/^15N backbone CSP analysis and ≥2xσ2 for ^1H/^13C methyl ILV data to identify all residues with a statistically significant change in its chemical shift upon SP interaction.
Residue specific KD values were calculated by using Eq. 2[23],2 CSPobs=CSPmax/2PP+S+KD−P+S+KD^2−4[S][P] where P and S are the concentration of PBP5 and SP1, respectively. CSPobs is the experimentally observed chemical shift value and CSPmax is the largest experimentally observed chemical shift value of the residue. […] The lack of saturation was due to the limited amount of available SP peptide due to their difficult synthesis. Residues used for KD calculation were common residues with statistically significant CSPs in the interaction studies of SP1 and SP2 with PBP5 at a 1:80 ratio.

Molecule: CO/N=C(\C(=O)N[C@@H]1C(=O)N2C(C(=O)O)=C(CSc3nc(=O)c(=O)[nH]n3C)CS[C@H]12)c1csc(N)n1 [Ceftriaxone, ceftriaxone]
- Zone Size (mm) [Range] [1]: 28 [26-28] mm
- MIC (µg/ml) [Range] [2]: 50 [25-100] µg/ml
- MIC (µg/ml) [Range] [3]: > 3200 [>3200] µg/ml

Molecule: D-Lac-L-Ala-D-iGln-L-Lys(D-iAsn)-D-Ala-D-Ala [SP1]
- Kd (PBP5 (PBP5_37-678)): ~4 mM
